Data from PMC5516890 (Bioconjugate chemistry, 2016).
“Also recorded” adds a separate entry of the source.

Tested on: NOD-SCID mice bearing isogenic PSMA^+ PC3 PIP and PSMA^− PC3 flu tumors
Assay: Biodistribution in tumor-bearing mice
Settings: for PSMA^+ PIP tumor uptake: PSMA+ PC3 PIP xenograft; for PSMA^− flu tumor uptake: PSMA− PC3 flu xenograft
[1] = 30 min postinjection, tail vein, ± SD, n = 3–4
[2] = 60 min postinjection, tail vein, ± SD, n = 3–4
[3] = 120 min postinjection, tail vein, ± SD, n = 3–4
[4] = 240 min postinjection, tail vein, ± SD, n = 3–4

O=C(O)CCC(NC(=O)NC(CCCCNC(=O)CCc1cn(CC[18F])nn1)C(=O)O)C(=O)O (stereo not drawn) [[^18F]YC-88, 2-[3-(1-carboxy-5-{3-[1-(2-[^18F]fluoroethyl)-1H-1,2,3-triazol-yl]propanamido}pentyl)ureido]-pentanedioic acid]
difference in PSMA^+ PC3 PIP tumor uptake between [^18F]YC-88 and [^18F]DCFPyL (30 min, P > 0.05): not statistically significant | salivary gland uptake compared to [^18F]DCFPyL (30 min and 1 h postinjection): significantly less; also recorded: significantly lower | PIP/flu uptake ratio (30 min postinjection): 70 | PIP/kidney uptake ratio (tumor-to-kidney) (30 min postinjection): 0.9 | bladder (empty) uptake [1]: 17.90 ± 14.18 % ID/g | blood uptake [1]: 1.02 ± 0.43 % ID/g | bone uptake [1]: 0.40 ± 0.16 % ID/g | fat uptake [1]: 0.33 ± 0.08 % ID/g | heart uptake [1]: 0.36 ± 0.18 % ID/g | kidney uptake [1]: 44.08 ± 12.52 % ID/g | large intestine uptake [1]: 0.87 ± 0.85 % ID/g | liver uptake [1]: 1.70 ± 0.21 % ID/g | lung uptake [1]: 1.09 ± 0.31 % ID/g | muscle uptake [1]: 0.22 ± 0.07 % ID/g | pancreas uptake [1]: 0.44 ± 0.13 % ID/g | salivary gland uptake [1]: 0.85 ± 0.39 % ID/g | small intestine uptake [1]: 0.37 ± 0.11 % ID/g | spleen uptake [1]: 1.67 ± 0.46 % ID/g | stomach uptake [1]: 0.41 ± 0.14 % ID/g | PIP/flu uptake ratio (60 min postinjection): 170 | PIP/kidney uptake ratio (tumor-to-kidney) (60 min postinjection): 2.4 | bladder (empty) uptake [2]: 7.78 ± 4.15 % ID/g | blood uptake [2]: 0.29 ± 0.08 % ID/g | bone uptake [2]: 0.16 ± 0.04 % ID/g | fat uptake [2]: 0.31 ± 0.18 % ID/g | heart uptake [2]: 0.18 ± 0.06 % ID/g | kidney uptake [2]: 20.08 ± 8.09 % ID/g | large intestine uptake [2]: 0.27 ± 0.14 % ID/g | liver uptake [2]: 1.73 ± 0.14 % ID/g | lung uptake [2]: 0.49 ± 0.24 % ID/g | muscle uptake [2]: 0.11 ± 0.06 % ID/g | pancreas uptake [2]: 0.16 ± 0.06 % ID/g | salivary gland uptake [2]: 0.31 ± 0.07 % ID/g | small intestine uptake [2]: 0.23 ± 0.04 % ID/g | spleen uptake [2]: 0.69 ± 0.23 % ID/g | stomach uptake [2]: 0.34 ± 0.20 % ID/g | PIP/flu uptake ratio (120 min postinjection): 243 | PIP/kidney uptake ratio (tumor-to-kidney) (120 min postinjection): 4 | bladder (empty) uptake [3]: 4.33 ± 2.64 % ID/g | blood uptake [3]: 0.28 ± 0.23 % ID/g | bone uptake [3]: 0.37 ± 0.36 % ID/g | fat uptake [3]: 0.17 ± 0.10 % ID/g | heart uptake [3]: 0.07 ± 0.02 % ID/g | kidney uptake [3]: 10.20 ± 2.76 % ID/g | large intestine uptake [3]: 0.31 ± 0.13 % ID/g | liver uptake [3]: 1.74 ± 0.23 % ID/g | lung uptake [3]: 0.22 ± 0.10 % ID/g | muscle uptake [3]: 0.10 ± 0.03 % ID/g | pancreas uptake [3]: 0.11 ± 0.06 % ID/g | salivary gland uptake [3]: 0.25 ± 0.07 % ID/g | small intestine uptake [3]: 0.18 ± 0.07 % ID/g | spleen uptake [3]: 0.29 ± 0.16 % ID/g | stomach uptake [3]: 0.12 ± 0.07 % ID/g | PIP/flu uptake ratio (240 min postinjection): 368 | PIP/kidney uptake ratio (tumor-to-kidney) (240 min postinjection): 6.7 | bladder (empty) uptake [4]: 1.22 ± 0.89 % ID/g | blood uptake [4]: 0.12 ± 0.04 % ID/g | bone uptake [4]: 0.11 ± 0.03 % ID/g | fat uptake [4]: 0.10 ± 0.04 % ID/g | heart uptake [4]: 0.04 ± 0.01 % ID/g | kidney uptake [4]: 3.84 ± 0.29 % ID/g | large intestine uptake [4]: 0.23 ± 0.09 % ID/g | liver uptake [4]: 1.45 ± 0.14 % ID/g | lung uptake [4]: 0.13 ± 0.02 % ID/g | muscle uptake [4]: 0.06 ± 0.03 % ID/g | pancreas uptake [4]: 0.07 ± 0.02 % ID/g | salivary gland uptake [4]: 0.14 ± 0.02 % ID/g | small intestine uptake [4]: 0.14 ± 0.03 % ID/g | spleen uptake [4]: 0.15 ± 0.05 % ID/g | stomach uptake [4]: 0.06 ± 0.02 % ID/g | PSMA^+ PIP tumor uptake [1]: 40.31 ± 5.13 % ID/g | PSMA^+ PIP tumor uptake [2]: 47.58 ± 5.19 % ID/g | PSMA^+ PIP tumor uptake [3]: 41.29 ± 4.22 % ID/g | PSMA^+ PIP tumor uptake [4]: 25.74 ± 7.33 % ID/g | PSMA^− flu tumor uptake [1]: 0.58 ± 0.23 % ID/g | PSMA^− flu tumor uptake [2]: 0.28 ± 0.13 % ID/g | PSMA^− flu tumor uptake [3]: 0.17 ± 0.03 % ID/g | PSMA^− flu tumor uptake [4]: 0.07 ± 0.01 % ID/g | kidney, liver, and spleen uptake compared to [^18F]DCFPyL (all time points, two-tailed Student's t test): significantly lower | difference in PSMA^− PC3 flu tumor uptake between the two radiotracers (any time): no significant difference | bone uptake (at all time points): < 1 % ID/g
